Assay results taken from PubChem BioAssay (NCI).
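Cells were grown in 96-well plates and exposed to each compound for 48 hours at five concentrations; endpoints were interpolated linearly between bracketing concentrations, or set to the highest concentration if not reached. At the TGI there is no net growth.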

Columns and labels:
Assay in all cases: DTP human tumour cell line panel, 48 h
[1] = system: 786-0 renal
[2] = system: A498 renal
[3] = system: A549 NSCLC
[4] = system: ACHN renal
[5] = system: CAKI-1 renal
[6] = system: CCRF-CEM leukemia
[7] = system: COLO 205 colon
[8] = system: DLD-1 colon
[9] = system: DMS 114 small cell lung
[10] = system: EKVX NSCLC
[11] = system: HCC-2998 colon
[12] = system: HCT-116 colon
[13] = system: HL-60(TB) leukemia
[14] = system: HOP-62 NSCLC
[15] = system: HT29 colon
[16] = system: IGROV1 ovarian
[17] = system: K-562 leukemia
[18] = system: KM12 colon
[19] = system: KM20L2 colon
[20] = system: M14 melanoma
[21] = system: M19-MEL melanoma
[22] = system: MALME-3M melanoma
[23] = system: MOLT-4 leukemia
[24] = system: NCI-H23 lung
[25] = system: NCI-H460 lung
[26] = system: NCI-H522 lung
[27] = system: OVCAR-3 ovarian
[28] = system: OVCAR-4 ovarian
[29] = system: OVCAR-5 ovarian
[30] = system: OVCAR-8 ovarian
[31] = system: RPMI-8226 leukemia
[32] = system: RXF 393 renal
[33] = system: SF-268 CNS
[34] = system: SF-295 CNS
[35] = system: SF-539 CNS
[36] = system: SK-MEL-2 melanoma
[37] = system: SK-MEL-28 melanoma
[38] = system: SK-MEL-5 melanoma
[39] = system: SK-OV-3 ovarian
[40] = system: SN12C renal
[41] = system: SR leukemia
[42] = system: SW-620 colon
[43] = system: TK-10 renal
[44] = system: UACC-257 melanoma
[45] = system: UACC-62 melanoma
[46] = system: UO-31 renal
[47] = system: BT-549 breast
[48] = system: DU-145 prostate
[49] = system: HCT-15 colon
[50] = system: HOP-92 NSCLC
[51] = system: HS 578T breast
[52] = system: LOX IMVI melanoma
[53] = system: MCF7 breast
[54] = system: MDA-MB-231 breast
[55] = system: MDA-MB-435
[56] = system: MDA-N
[57] = system: NCI-H226 lung
[58] = system: NCI/ADR-RES ovarian
[59] = system: PC-3 prostate
[60] = system: SNB-19 CNS
[61] = system: SNB-75 CNS
[62] = system: T-47D breast
[63] = system: U251 CNS

## COC(=O)/C(=N/Nc1cccc(Cl)c1)C(C(=O)C(=O)Nc1cccc(Cl)c1C)c1nc2ccccc2nc1C (stereo not given)
[1]
  TGI: > 100 µM
[2]
  TGI: > 100 µM
[3]
  TGI: > 100 µM
[4]
  TGI: > 100 µM
[5]
  TGI: > 100 µM
[6]
  TGI: > 100 µM
[7]
  TGI: > 100 µM
[8]
  TGI: > 100 µM
[9]
  TGI: > 100 µM
[10]
  TGI: > 100 µM
[11]
  TGI: > 100 µM
[12]
  TGI: > 100 µM
[13]
  TGI: > 100 µM
[14]
  TGI: > 100 µM
[15]
  TGI: > 100 µM
[16]
  TGI: > 100 µM
[17]
  TGI: > 100 µM
[18]
  TGI: > 100 µM
[19]
  TGI: > 100 µM
[20]
  TGI: > 100 µM
[21]
  TGI: > 100 µM
[22]
  TGI: > 100 µM
[23]
  TGI: > 100 µM
[24]
  TGI: > 100 µM
[25]
  TGI: > 100 µM
[26]
  TGI: > 100 µM
[27]
  TGI: > 100 µM
[28]
  TGI: > 100 µM
[29]
  TGI: 59.8 µM
[30]
  TGI: > 100 µM
[31]
  TGI: > 100 µM
[32]
  TGI: > 100 µM
[33]
  TGI: > 100 µM
[34]
  TGI: > 100 µM
[35]
  TGI: > 100 µM
[36]
  TGI: > 100 µM
[37]
  TGI: > 100 µM
[38]
  TGI: > 100 µM
[39]
  TGI: > 100 µM
[40]
  TGI: > 100 µM
[41]
  TGI: > 100 µM
[42]
  TGI: > 100 µM
[43]
  TGI: > 100 µM
[44]
  TGI: > 100 µM
[45]
  TGI: > 100 µM
[46]
  TGI: 75.1 µM

## C=C1c2nc3ccccc3n2C=C(c2ccc(C)cc2)N1c1ccc(C)cc1
[1]
  TGI: > 100 µM
[2]
  TGI: > 100 µM
[3]
  TGI: > 100 µM
[4]
  TGI: > 100 µM
[47]
  TGI: > 100 µM
[5]
  TGI: > 100 µM
[6]
  TGI: > 100 µM
[7]
  TGI: > 89.3 µM
[48]
  TGI: > 100 µM
[10]
  TGI: > 100 µM
[11]
  TGI: > 72.9 µM
[12]
  TGI: > 100 µM
[49]
  TGI: > 80.6 µM
[13]
  TGI: 64.4 µM
[14]
  TGI: > 100 µM
[50]
  TGI: > 100 µM
[51]
  TGI: > 100 µM
[15]
  TGI: > 100 µM
[16]
  TGI: > 100 µM
[17]
  TGI: > 100 µM
[18]
  TGI: > 82.2 µM
[52]
  TGI: > 100 µM
[20]
  TGI: > 100 µM
[22]
  TGI: > 100 µM
[53]
  TGI: > 100 µM
[54]
  TGI: > 100 µM
[55]
  TGI: > 78.2 µM
[56]
  TGI: > 92.3 µM
[23]
  TGI: > 100 µM
[57]
  TGI: > 44.4 µM
[24]
  TGI: > 100 µM
[25]
  TGI: > 100 µM
[26]
  TGI: 56.7 µM
[58]
  TGI: > 78.9 µM
[27]
  TGI: > 100 µM
[28]
  TGI: > 100 µM
[29]
  TGI: > 100 µM
[30]
  TGI: > 100 µM
[59]
  TGI: > 100 µM
[31]
  TGI: > 89.8 µM
[32]
  TGI: > 96.6 µM
[33]
  TGI: > 100 µM
[34]
  TGI: > 100 µM
[35]
  TGI: > 100 µM
[36]
  TGI: > 100 µM
[37]
  TGI: > 100 µM
[38]
  TGI: > 69.8 µM
[39]
  TGI: > 100 µM
[40]
  TGI: > 100 µM
[60]
  TGI: > 100 µM
[61]
  TGI: > 100 µM
[41]
  TGI: > 74.3 µM
[42]
  TGI: > 100 µM
[62]
  TGI: > 100 µM
[43]
  TGI: > 100 µM
[63]
  TGI: > 100 µM
[44]
  TGI: > 100 µM
[45]
  TGI: > 100 µM
[46]
  TGI: > 100 µM
